# According to patent US20230416228A1 (Forkhead Biotherapeutics, Inc., priority 2020, published 2023):
# pIC50: −log10 of the molar value.
# Target: T1, human FOXO1 (constitutively active form Thr24Ala, Ser256Ala, Ser319Ala) (Homo sapiens, UniProt Q12778, S256A/S319A/T24A)
# T1 construct: expressed in transfected cells; host or cells: HEK293 cells transfected with pcDNA3.1 plasmid
# Experiment: FOXO1 inhibitor activity assay: cell-based transcriptional (luciferase) reporter assay in HEK293 cells
# Settings: HEK293 cells transfected with insulin response element firefly luciferase reporter, FOXO1 and Renilla luciferase; 10-point dose response 50 μM to 2.5 nM; 24 hours
# Procedure, shortened: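 IC50 and maximal inhibition were fitted by 4-parameter logistic regression on normalized firefly/Renilla luciferase ratios. The 0% reference used RFP in place of FOXO1, and the 100% reference was DMSO-only with all plasmids.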
# T1 sequence (Q12778 whole entry T24A/S256A/S319A): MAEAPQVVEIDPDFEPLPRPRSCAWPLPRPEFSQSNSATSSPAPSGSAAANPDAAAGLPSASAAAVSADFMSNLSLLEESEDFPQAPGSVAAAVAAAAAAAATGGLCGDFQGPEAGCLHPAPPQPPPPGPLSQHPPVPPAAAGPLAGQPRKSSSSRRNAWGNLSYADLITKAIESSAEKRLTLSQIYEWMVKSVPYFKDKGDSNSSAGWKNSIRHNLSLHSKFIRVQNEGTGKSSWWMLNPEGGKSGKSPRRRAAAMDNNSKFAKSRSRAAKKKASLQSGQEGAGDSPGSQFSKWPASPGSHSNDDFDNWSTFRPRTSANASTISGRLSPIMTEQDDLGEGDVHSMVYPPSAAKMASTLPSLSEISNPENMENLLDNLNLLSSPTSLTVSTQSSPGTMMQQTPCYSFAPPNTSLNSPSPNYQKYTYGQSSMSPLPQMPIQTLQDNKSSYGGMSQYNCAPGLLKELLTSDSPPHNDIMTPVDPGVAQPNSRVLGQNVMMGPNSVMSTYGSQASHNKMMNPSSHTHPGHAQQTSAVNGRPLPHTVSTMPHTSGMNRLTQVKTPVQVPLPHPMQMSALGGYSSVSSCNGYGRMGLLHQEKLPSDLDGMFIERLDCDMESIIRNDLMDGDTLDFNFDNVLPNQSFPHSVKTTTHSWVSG
row,Compound,pIC50
1,"Cn1nc(NC(=O)c2ccc(N3CCC(O)(CCO)CC3)nc2)cc1-c1nc2ccccc2[nH]1 [Compound A-283, N-[5-(1H-benzimidazol-2-yl)-1-methyl-pyrazol-3-yl]-6-[4-hydroxy-4-(2-hydroxyethyl)-1-piperidyl]pyridine-3-carboxamide]",> 7.00
2,"Cn1nc(NC(=O)c2ccc(N3CC4CC(C3)N4)nc2)cc1-c1nc2ccccc2[nH]1 [Compound A-284, N-[5-(1H-benzimidazol-2-yl)-1-methyl-pyrazol-3-yl]-6-(3,6-diazabicyclo[3.1.1]heptan-3-yl)pyridine-3-carboxamide]",6.52 to 7.00
3,"Cn1nc(NC(=O)c2ccc(N3C4CCC3COC4)nc2)cc1-c1nc2ccccc2[nH]1 [Compound A-285, N-[5-(1H-benzimidazol-2-yl)-1-methyl-pyrazol-3-yl]-6-(3-oxa-8-azabicyclo[3.2.1]octan-8-yl)pyridine-3-carboxamide]",> 7.00
4,"Cn1nc(NC(=O)c2ccc(N3CC4CCC(C3)N4)nc2)cc1-c1nc2ccccc2[nH]1 [Compound A-286, N-[5-(1H-benzimidazol-2-yl)-1-methyl-pyrazol-3-yl]-6-(3,8-diazabicyclo[3.2.1]octan-3-yl)pyridine-3-carboxamide]",6.52 to 7.00
5,"Cn1nc(NC(=O)c2ccc(N3CCN(C(=O)COCCO)CC3)nc2)cc1-c1nc2ccccc2[nH]1 [Compound A-287, N-[5-(1H-benzimidazol-2-yl)-1-methyl-pyrazol-3-yl]-6-[4-[2-(2-hydroxyethoxy)acetyl]piperazin-1-yl]pyridine-3-carboxamide]",6.00 to 6.52
6,"C[C@H]1CN(c2ccc(C(=O)Nc3cc(-c4nc5ccccc5[nH]4)n(C)n3)cn2)C[C@H](C)N1 [Compound A-288, N-[5-(1H-benzimidazol-2-yl)-1-methyl-pyrazol-3-yl]-6-[(3S,5S)-3,5-dimethylpiperazin-1-yl]pyridine-3-carboxamide]",6.52 to 7.00
7,"Cn1nc(NC(=O)c2ccc(N3CCN(C(=O)CN)CC3)nc2)cc1-c1nc2ccccc2[nH]1 [Compound A-289, 6-[4-(2-aminoacetyl)piperazin-1-yl]-N-[5-(1H-benzimidazol-2-yl)-1-methyl-pyrazol-3-yl]pyridine-3-carboxamide]",6.52 to 7.00

# The remaining lines, values ahead:
row,pIC50,Compound
1,> 7.00,Cn1nc(NC(=O)c2ccc(N3CCN4CCCC4C3)nc2)cc1-c1nc2ccccc2[nH]1 (centres unmarked) [Compound A-279]
2,> 7.00,"Cn1nc(NC(=O)c2ccc(N3CCNC(C)(C)C3)nc2)cc1-c1nc2ccccc2[nH]1 [Compound A-280, N-[5-(1H-benzimidazol-2-yl)-1-methyl-pyrazol-3-yl]-6-(3,3-dimethyl-piperazin-1-yl)pyridine-3-carboxamide]"
3,> 7.00,"Cn1nc(NC(=O)c2ccc(N3CCNC4(CC4)C3)nc2)cc1-c1nc2ccccc2[nH]1 [Compound A-281, N-[5-(1H-benzimidazol-2-yl)-1-methyl-pyrazol-3-yl]-6-(4,7-diazaspiro[2.5]octan-7-yl)pyridine-3-carboxamide]"
4,> 7.00,"Cn1nc(NC(=O)c2ccc(N3CCC4(CC3)COC4)nc2)cc1-c1nc2ccccc2[nH]1 [Compound A-282, N-[5-(1H-benzimidazol-2-yl)-1-methyl-pyrazol-3-yl]-6-(2-oxa-7-azaspiro[3.5]nonan-7-yl)pyridine-3-carboxamide]"
